Assay results reported in ChEMBL document CHEMBL5331073, “Discovery of novel 7,7-dimethyl-6,7-dihydro-5H-pyrrolo[3,4-d]pyrimidines as ATR inhibitors based on structure-based drug design” (Eur J Med Chem, 2023).
Activity calls are given as the source filed them. No cut-off for these calls is given here.

Assays:
[1] = molecular target: Serine/threonine-protein kinase ATR (Homo sapiens, UniProt Q13535); assay: Inhibition of ATR (unknown origin) using peptide as substrate preincubated for 10 mins followed by substrate addition by microplate reader analysis
[2] = molecular target: Serine/threonine-protein kinase mTOR (Homo sapiens, UniProt P42345); assay: Inhibition of mTOR (unknown origin) using peptide as substrate preincubated for 10 mins followed by substrate addition by microplate reader analysis
[3] = Half life in Sprague-Dawley rat at 1 mg/kg, iv and measured upto 24 hrs by LC-MS analysis; type: ADME, organism-based; conditions: in vivo
[4] = AUC(0 to infinity) in Sprague-Dawley rat at 1 mg/kg, iv and measured upto 24 hrs by LC-MS analysis; type: ADME, organism-based; design: time < 24 hrs, dose 1 mg/kg, route iv; conditions: in vivo
[5] = AUCt in Sprague-Dawley rat at 1 mg/kg, iv and measured upto 24 hrs by LC-MS analysis; type: ADME, organism-based; design: dose 1 mg/kg, time < 24 hrs, route iv; conditions: in vivo
[6] = Clearance in Sprague-Dawley rat at 1 mg/kg, iv and measured upto 24 hrs by LC-MS analysis; type: ADME, organism-based; conditions: in vivo
[7] = Half life in Sprague-Dawley rat at 5 mg/kg, po and measured upto 24 hrs by LC-MS analysis; type: ADME, organism-based; conditions: in vivo
[8] = Cmax in Sprague-Dawley rat at 5 mg/kg, po and measured upto 24 hrs by LC-MS analysis; type: ADME, organism-based; design: time < 24 hrs, dose 5 mg/kg, route po; conditions: in vivo
[9] = AUCt in Sprague-Dawley rat at 5 mg/kg, po and measured upto 24 hrs by LC-MS analysis; type: ADME, organism-based; design: time < 24 hrs, dose 5 mg/kg, route po; conditions: in vivo
[10] = AUC (0 to infinity) in Sprague-Dawley rat at 5 mg/kg, po and measured upto 24 hrs by LC-MS analysis; type: ADME, organism-based; design: time < 24 hrs, dose 5 mg/kg, route po; conditions: in vivo
[11] = MRT(t) in Sprague-Dawley rat at 5 mg/kg, po and measured upto 24 hrs by LC-MS analysis; type: ADME, organism-based; conditions: in vivo
[12] = molecular target: Cytochrome P450 2C9 (Homo sapiens, UniProt P11712); assay: Inhibition of CYP2C9 in human liver microsomes using […] as substrate preincubated for 5 mins followed by NADPH addition and measured after 120 mins by LC-MS/MS analysis; type: ADME, Microsome
[13] = molecular target: Cytochrome P450 2C19 (Homo sapiens, UniProt P33261); assay: Inhibition of CYP2C19 in human liver microsomes using […] as substrate preincubated for 5 mins followed by NADPH addition and measured after 120 mins by LC-MS/MS analysis; type: ADME, Microsome
[14] = molecular target: Cytochrome P450 2D6 (Homo sapiens, UniProt P10635); assay: Inhibition of CYP2D6 in human liver microsomes using […] as substrate preincubated for 5 mins followed by NADPH addition and measured after 120 mins by LC-MS/MS analysis; type: ADME, Microsome
[15] = molecular target: T1, Cytochrome P450 3A4 (Homo sapiens, UniProt P08684); assay: Inhibition of CYP3A4 in human liver microsomes using midazolam as substrate preincubated for 5 mins followed by NADPH addition and measured after 120 mins by LC-MS/MS analysis; type: ADME, Microsome
[16] = molecular target: T1, Cytochrome P450 3A4; assay: Inhibition of CYP3A4 in human liver microsomes using […] as substrate preincubated for 5 mins followed by NADPH addition and measured after 120 mins by LC-MS/MS analysis; type: ADME, Microsome
[17] = Protein binding in human plasma at 1 uM incubated for 6 hrs by dialysis based LC-MS/MS analysis; type: ADME, cell-free; conditions: read-out: PPB (converted)
[18] = Protein binding in monkey plasma at 1 uM incubated for 6 hrs by dialysis based LC-MS/MS analysis; type: ADME, cell-free, Macaca mulatta; conditions: rhesus monkey, read-out: PPB (converted)
[19] = Protein binding in Beagle dog plasma at 1 uM incubated for 6 hrs by dialysis based LC-MS/MS analysis; type: ADME, cell-free, Canis lupus familiaris; conditions: read-out: PPB (converted)
[20] = Protein binding in rat plasma at 1 uM incubated for 6 hrs by dialysis based LC-MS/MS analysis; type: ADME, cell-free; conditions: read-out: PPB (converted)
[21] = Protein binding in mouse plasma at 1 uM incubated for 6 hrs by dialysis based LC-MS/MS analysis; type: ADME, cell-free; conditions: read-out: PPB (converted)
[22] = tested on: LoVo; assay: Inhibition of colony formation of ATM-deficient human LoVo cells at 0.03 to 3 uM incubated for 2 weeks by crystal violet staining based assay; type: functional, cell-based; conditions: dose 0.03-3 µM
[23] = tested on: LoVo; assay: Antimigratory activity against ATM-deficient human LoVo cells assessed as inhibition of cell migration at 0.03 to 3 uM incubated for 24 hrs by crystal violet staining based Transwell migration assay; type: functional; conditions: dose 0.03-3 µM
[24] = tested on: SW-620; assay: Antiproliferative activity against ATM-deficient human SW620 cells assessed as reduction in cell viability incubated for 3 days by MTT assay; type: functional, cell-based; conditions: SW-620, 72 h
[25] = tested on: OVCAR-3; assay: Antiproliferative activity against ATM-deficient human OVCAR-3 cells assessed as reduction in cell viability incubated for 3 days by MTT assay; type: functional, cell-based; conditions: OVCAR-3, 72 h
[26] = tested on: HCT-116; assay: Antiproliferative activity against ATM-proficient human HCT-116 cells assessed as reduction in cell viability incubated for 3 days by MTT assay; type: functional, cell-based; conditions: HCT-116, 72 h
[27] = tested on: HT-29; assay: Antiproliferative activity against ATM-proficient human HT-29 cells assessed as reduction in cell viability incubated for 3 days in presence of AZD-1390 by MTT assay; type: functional, cell-based; conditions: HT-29, 72 h
[28] = tested on: HCT-116; assay: Antiproliferative activity against ATM-proficient human HCT-116 cells assessed as reduction in cell viability incubated for 3 days in presence of AZD-1390 by MTT assay; type: functional, cell-based; conditions: HCT-116, 72 h
[29] = tested on: HCT-116; assay: Synergistic antiproliferative activity against ATM-proficient human HCT-116 cells assessed as reduction in cell viability incubated for 3 days in presence of cisplatin by MTT assay; type: functional, cell-based; conditions: HCT-116, 72 h
[30] = tested on: A549; assay: Synergistic antiproliferative activity against ATM-proficient human A549 cells assessed as reduction in cell viability incubated for 3 days in presence of cisplatin by MTT assay; type: functional, cell-based; conditions: A549, 72 h
[31] = tested on: MCF7; assay: Antiproliferative activity against human MCF7 cells assessed as reduction in cell viability incubated for 3 days by MTT assay; type: functional, cell-based; conditions: MCF7, 72 h
[32] = tested on: MCF7; assay: Synergistic antiproliferative activity against human MCF7 cells assessed as reduction in cell viability incubated for 3 days in presence of olaparib by MTT assay; type: functional, cell-based; conditions: MCF7, 72 h
[33] = tested on: MDA-MB-231; assay: Antiproliferative activity against human MDA-MB-231 cells assessed as reduction in cell viability incubated for 3 days by MTT assay; type: functional, cell-based; conditions: MDA-MB-231, 72 h
[34] = tested on: MDA-MB-231; assay: Synergistic antiproliferative activity against human MDA-MB-231 cells assessed as reduction in cell viability incubated for 3 days in presence of olaparib by MTT assay; type: functional, cell-based; conditions: MDA-MB-231, 72 h
[35] = Apparent permeability across apical to basolateral side in human Caco-2 cells by bidirectional permeability assay; type: ADME, cell-based
[36] = Apparent permeability across basolateral to apical side in human Caco-2 cells by bidirectional permeability assay; type: ADME, cell-based
[37] = molecular target: Serine-protein kinase ATM (Homo sapiens, UniProt Q13315); assay: Inhibition of ATM (unknown origin) using peptide as substrate preincubated for 10 mins followed by substrate addition by microplate reader analysis
[38] = in vitro; conditions: rat, liver microsomes
[39] = in vitro; conditions: human, liver microsomes
[40] = in vitro; conditions: human, liver microsomes; remark: listed apart in the source

T1 sequence (P08684 whole entry): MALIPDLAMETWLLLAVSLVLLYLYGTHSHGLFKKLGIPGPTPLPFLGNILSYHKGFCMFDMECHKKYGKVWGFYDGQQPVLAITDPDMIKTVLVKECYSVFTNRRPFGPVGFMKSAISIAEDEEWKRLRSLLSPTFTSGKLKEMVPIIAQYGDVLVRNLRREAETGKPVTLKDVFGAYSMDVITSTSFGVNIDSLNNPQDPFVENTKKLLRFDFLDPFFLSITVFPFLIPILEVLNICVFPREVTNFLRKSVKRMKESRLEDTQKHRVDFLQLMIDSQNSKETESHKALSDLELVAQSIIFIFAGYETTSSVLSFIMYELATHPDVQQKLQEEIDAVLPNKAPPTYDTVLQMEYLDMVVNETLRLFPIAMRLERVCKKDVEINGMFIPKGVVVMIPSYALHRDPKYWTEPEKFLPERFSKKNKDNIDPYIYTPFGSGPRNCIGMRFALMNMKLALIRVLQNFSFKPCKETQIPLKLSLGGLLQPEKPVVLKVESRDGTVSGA
Serine-protein kinase ATM, sequence (Q13315 whole entry): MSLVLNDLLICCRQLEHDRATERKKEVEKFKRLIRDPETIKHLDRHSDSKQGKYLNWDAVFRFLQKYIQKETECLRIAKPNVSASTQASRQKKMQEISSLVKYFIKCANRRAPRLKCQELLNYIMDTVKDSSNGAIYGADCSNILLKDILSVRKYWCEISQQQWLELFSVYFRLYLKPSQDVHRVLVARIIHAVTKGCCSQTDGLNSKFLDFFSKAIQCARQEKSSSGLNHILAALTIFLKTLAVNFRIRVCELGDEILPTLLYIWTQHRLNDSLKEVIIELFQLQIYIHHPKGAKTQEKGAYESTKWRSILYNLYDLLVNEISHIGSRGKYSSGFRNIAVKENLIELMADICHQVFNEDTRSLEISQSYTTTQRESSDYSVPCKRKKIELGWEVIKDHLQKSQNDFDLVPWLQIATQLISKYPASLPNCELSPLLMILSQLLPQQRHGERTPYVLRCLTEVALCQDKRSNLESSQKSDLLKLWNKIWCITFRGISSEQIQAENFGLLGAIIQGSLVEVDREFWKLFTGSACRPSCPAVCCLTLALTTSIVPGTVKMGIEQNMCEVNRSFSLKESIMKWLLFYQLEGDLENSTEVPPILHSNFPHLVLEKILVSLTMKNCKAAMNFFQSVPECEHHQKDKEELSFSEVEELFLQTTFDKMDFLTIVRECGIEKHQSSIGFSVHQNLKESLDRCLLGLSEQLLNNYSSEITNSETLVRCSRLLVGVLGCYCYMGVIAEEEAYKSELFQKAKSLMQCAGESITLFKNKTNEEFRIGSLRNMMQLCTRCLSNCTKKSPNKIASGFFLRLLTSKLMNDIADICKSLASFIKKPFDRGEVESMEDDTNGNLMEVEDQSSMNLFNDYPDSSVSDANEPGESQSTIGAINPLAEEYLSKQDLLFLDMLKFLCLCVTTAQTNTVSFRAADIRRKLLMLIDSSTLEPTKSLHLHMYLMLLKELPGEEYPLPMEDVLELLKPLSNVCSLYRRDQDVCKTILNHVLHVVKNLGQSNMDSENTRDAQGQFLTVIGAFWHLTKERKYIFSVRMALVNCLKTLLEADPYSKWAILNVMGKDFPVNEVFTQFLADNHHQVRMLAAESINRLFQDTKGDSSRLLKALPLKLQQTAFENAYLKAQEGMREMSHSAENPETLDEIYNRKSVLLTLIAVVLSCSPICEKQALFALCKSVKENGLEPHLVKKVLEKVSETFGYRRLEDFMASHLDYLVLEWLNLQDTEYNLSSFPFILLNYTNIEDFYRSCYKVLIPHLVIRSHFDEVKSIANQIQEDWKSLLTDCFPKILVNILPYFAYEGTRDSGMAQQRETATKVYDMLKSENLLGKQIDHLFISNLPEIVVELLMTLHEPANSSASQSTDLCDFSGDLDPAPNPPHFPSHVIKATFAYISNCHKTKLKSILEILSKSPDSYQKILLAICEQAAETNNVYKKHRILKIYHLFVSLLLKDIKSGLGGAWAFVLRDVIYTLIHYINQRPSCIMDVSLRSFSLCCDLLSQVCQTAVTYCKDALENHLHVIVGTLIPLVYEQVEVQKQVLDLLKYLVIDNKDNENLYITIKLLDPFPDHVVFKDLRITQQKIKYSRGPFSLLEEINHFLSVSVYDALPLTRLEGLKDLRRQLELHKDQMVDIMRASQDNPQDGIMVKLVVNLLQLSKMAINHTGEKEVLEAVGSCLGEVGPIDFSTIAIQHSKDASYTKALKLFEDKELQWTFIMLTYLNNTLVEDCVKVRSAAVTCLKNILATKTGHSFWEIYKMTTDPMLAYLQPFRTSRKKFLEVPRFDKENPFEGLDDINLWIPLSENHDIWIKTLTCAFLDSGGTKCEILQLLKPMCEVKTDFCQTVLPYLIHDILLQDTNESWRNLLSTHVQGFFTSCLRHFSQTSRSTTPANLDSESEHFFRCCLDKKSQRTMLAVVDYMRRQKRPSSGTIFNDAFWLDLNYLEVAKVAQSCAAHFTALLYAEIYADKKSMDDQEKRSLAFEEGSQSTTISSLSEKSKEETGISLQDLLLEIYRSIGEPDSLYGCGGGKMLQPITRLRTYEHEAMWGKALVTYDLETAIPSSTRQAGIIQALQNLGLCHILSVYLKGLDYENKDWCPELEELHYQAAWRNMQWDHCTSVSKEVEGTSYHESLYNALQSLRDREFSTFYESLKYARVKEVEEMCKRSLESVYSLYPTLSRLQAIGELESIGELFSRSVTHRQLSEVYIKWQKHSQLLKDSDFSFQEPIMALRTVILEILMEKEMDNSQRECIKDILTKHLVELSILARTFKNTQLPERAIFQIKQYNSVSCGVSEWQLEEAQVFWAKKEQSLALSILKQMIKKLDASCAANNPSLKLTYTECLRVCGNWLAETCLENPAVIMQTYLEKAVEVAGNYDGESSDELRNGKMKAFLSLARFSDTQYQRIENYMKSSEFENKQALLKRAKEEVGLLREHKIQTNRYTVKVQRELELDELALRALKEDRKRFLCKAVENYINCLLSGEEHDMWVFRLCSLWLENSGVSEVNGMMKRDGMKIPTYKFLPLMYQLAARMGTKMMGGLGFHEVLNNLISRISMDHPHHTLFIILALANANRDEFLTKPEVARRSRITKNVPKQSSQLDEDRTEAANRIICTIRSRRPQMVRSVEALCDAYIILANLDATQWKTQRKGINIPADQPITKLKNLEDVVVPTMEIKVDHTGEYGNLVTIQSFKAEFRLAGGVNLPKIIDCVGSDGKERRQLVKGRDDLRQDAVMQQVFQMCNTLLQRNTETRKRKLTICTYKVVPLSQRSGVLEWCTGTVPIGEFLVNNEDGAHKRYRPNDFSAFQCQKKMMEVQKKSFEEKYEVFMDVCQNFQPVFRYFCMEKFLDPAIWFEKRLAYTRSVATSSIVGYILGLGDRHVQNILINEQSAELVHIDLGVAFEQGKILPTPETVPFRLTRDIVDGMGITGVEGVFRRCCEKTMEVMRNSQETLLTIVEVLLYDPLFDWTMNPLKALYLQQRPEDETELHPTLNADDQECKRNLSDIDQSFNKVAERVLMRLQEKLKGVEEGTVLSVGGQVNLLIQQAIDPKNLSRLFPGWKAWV
Cytochrome P450 2C19, sequence (P33261 whole entry): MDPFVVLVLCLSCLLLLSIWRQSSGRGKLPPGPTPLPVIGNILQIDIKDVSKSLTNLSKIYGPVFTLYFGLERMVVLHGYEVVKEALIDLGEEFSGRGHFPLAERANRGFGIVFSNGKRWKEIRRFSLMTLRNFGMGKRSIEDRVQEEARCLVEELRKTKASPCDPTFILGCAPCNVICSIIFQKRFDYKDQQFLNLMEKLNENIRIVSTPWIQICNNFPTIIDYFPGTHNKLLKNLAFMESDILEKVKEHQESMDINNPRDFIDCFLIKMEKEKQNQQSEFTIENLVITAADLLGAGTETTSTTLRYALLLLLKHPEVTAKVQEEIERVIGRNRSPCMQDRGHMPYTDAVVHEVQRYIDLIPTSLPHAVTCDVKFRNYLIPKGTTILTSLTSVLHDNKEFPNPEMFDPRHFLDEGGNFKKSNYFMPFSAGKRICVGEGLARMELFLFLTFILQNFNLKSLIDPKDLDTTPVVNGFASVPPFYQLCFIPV
Cytochrome P450 2D6, sequence (P10635 whole entry): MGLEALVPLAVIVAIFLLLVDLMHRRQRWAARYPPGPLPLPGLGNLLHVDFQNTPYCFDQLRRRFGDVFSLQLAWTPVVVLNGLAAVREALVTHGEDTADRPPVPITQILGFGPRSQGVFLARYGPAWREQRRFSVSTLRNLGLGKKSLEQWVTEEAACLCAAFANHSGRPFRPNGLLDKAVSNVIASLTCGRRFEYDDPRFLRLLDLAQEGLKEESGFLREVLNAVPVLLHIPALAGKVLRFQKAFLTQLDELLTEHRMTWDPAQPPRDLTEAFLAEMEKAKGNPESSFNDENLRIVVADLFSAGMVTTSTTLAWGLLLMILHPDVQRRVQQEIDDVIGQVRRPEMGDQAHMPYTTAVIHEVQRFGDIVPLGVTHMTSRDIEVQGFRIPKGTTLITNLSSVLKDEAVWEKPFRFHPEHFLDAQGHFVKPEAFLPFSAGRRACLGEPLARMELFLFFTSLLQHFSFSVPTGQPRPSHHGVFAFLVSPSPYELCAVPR
Cytochrome P450 2C9, sequence (P11712 whole entry): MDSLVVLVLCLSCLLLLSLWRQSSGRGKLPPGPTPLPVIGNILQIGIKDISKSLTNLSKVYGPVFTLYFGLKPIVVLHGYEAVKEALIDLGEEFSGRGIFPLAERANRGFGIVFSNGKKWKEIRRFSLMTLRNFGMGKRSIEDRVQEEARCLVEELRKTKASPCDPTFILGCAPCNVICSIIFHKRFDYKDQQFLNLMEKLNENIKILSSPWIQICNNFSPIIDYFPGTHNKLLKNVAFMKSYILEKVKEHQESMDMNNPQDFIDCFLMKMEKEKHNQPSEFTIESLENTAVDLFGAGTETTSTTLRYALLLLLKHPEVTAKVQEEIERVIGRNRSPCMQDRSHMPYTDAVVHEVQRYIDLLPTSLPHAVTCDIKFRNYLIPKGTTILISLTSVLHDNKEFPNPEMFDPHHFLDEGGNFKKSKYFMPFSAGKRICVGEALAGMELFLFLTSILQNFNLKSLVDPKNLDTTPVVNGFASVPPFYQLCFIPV

Row | SMILES | IC50 [1] [nM] | IC50 [2] [nM] | half-life [3] [h] | AUC(0-inf) [4] [ng·h/mL] | AUC(0-t) at 24 h [5] [ng·h/mL] | clearance [6] [mL/min/kg] | half-life [7] [h] | Cmax [8] [ng/mL] | AUC(0-t) at 24 h [9] [ng·h/mL] | AUC(0-inf) [10] [ng·h/mL] | MRT last at 24 h [11] [h] | IC50 [12] [nM] | IC50 [13] [nM] | IC50 [14] [nM] | IC50 [15] [nM] | IC50 [16] [nM] | fraction unbound at 6 h, 1 µM [17] | fraction unbound at 6 h, 1 µM [18] | fraction unbound at 6 h, 1 µM [19] | fraction unbound at 6 h, 1 µM [20] | further results
1 | C[C@@H]1COCCN1c1nc(-c2cccc3[nH]ccc23)nc2c1CN(C(=O)c1cccc(S(C)(=O)=O)c1)C2(C)C | 3 | 18 | 1.32 | 1170 | 1160 | 14.2 | 2.66 | 282 | 1620 | 1750 | 3.6 | 10000 | 1000 | > 10000 | 1000 | 10000 | 0.003 | 0.079 | 0.022 | 0.039 | fraction unbound at 6 h, 1 µM [21]: 0.024; inhibition [22]: Dose-Dependent Effect; inhibition [23]: Active; IC50 [24]: 95 nM; IC50 [25]: 98 nM; IC50 [26]: 41 nM; IC50 [27]: 19 nM; IC50 [28]: 1 nM; IC50 [29]: 24 nM; IC50 [30]: 280 nM; IC50 [31]: 873 nM; IC50 [32]: 328 nM; IC50 [33]: 1070 nM; IC50 [34]: 435 nM; Papp A→B [35]: 8.23 ×10⁻⁶ cm/s; Papp B→A [36]: 16.7 ×10⁻⁶ cm/s; IC50 [37]: 1000 nM; half-life at 1 h, 1 µM [38]: 0.35 h; microsomal CLint at 1 h, 1 µM [39]: 407 µL/min/mg; CLint scaled at 1 h, 1 µM [40]: 385 mL/min/kg
2 | C[C@@H]1COCCN1c1nc(-c2cccc3[nH]ccc23)nc2c1CN(C(=O)c1ccc3c(c1)OCO3)C2(C)C | 5 | 33 | 1.59 | 2810 | 2740 | 5.97 | 3.81 | 1290 | 5700 | 6170 | 4.36 | 10000 | 1000 | > 10000 | 1000 | 1000 | 0.001 | 0.011 | 0.005 | 0.001 | fraction unbound at 6 h, 1 µM [21]: 0.005; inhibition [22]: Dose-Dependent Effect; inhibition [23]: Active; IC50 [24]: 145 nM; IC50 [25]: 127 nM; IC50 [26]: 196 nM; IC50 [27]: 45 nM; IC50 [28]: 84 nM; IC50 [29]: 93 nM; IC50 [30]: 439 nM; IC50 [31]: 730 nM; IC50 [32]: 347 nM; IC50 [33]: 2570 nM; IC50 [34]: 279 nM; Papp A→B [35]: 1.91 ×10⁻⁶ cm/s; Papp B→A [36]: 2.3 ×10⁻⁶ cm/s; IC50 [37]: 516 nM; half-life at 1 h, 1 µM [38]: 0.655 h; microsomal CLint at 1 h, 1 µM [39]: 53.2 µL/min/mg; CLint scaled at 1 h, 1 µM [40]: 50.3 mL/min/kg
